These are literature values, as cited in patent US20060063833A1, “Ready-to-use oxaliplatin solutions” (priority 2004, published 2006).

For data set [1] the following is noted: at least at concentrations below 1 mg/ml.

Turning to `O=C1[O][Pt-2]2([NH2+]C3CCCC[C@H]3[NH2+]2)[O]C1=O` (stereo partly drawn) [Oxaliplatin, cis-oxalato-(trans-1,2-cyclohexanediamine)-platinum(II)], the solubility in ethanol result (ethanol) is reported as “practically insoluble”. In addition, the solubility in methanol entry (methanol) is recorded as “scarcely soluble”. Further, for the setting “water”, the solubility in water entry is given as “soluble”. In data set [1], the stability in water entry was “not very stable”.
